Data reported in publication PMC9376946, “Peptide-RNA Coacervates as a Cradle for the Evolution of Folded Domains” (Journal of the American Chemical Society, 2022).

Tests used:
[1] = system: polyU; assay: Coacervate (droplet) formation with polyU, optical microscopy; assay type: physicochemical; details: for coacervate formation with polyU: 150 μM, 50 mM MES pH 5.6
Protocol: Optical microscopy images of phase-separated samples were taken at the de Picciotto Cancer Cell Observatory Life Sciences Core Facilities (Weizmann Institute of Science) using a 100× objective (oil immersion) on a Leica DMI8 microscope with differential interface contrast. We used 1–2 μL of the sample to make a small drop in an imaging chamber produced by attaching a coverslip to a clean glass slide using a thin strip of double-sided tape (AJ Sign World). Images were processed using the software package Fiji (NIH).
Lyophilized, spin-labeled peptides were dissolved in Milli-Q water and centrifuged at 4000 rpm for 10 min to remove insoluble aggregates. The soluble fractions were used to prepare stock solutions of 250–500 μM peptide. Labeled peptide concentrations were determined by comparing the area under the curve of the EPR signal against that of standard solutions of 10–285 μM TEMPO. For the EPR measurements in D2O, 200 μL of the stock solution was lyophilized and re-dissolved in D2O. The concentration of the unlabeled peptide stock solutions was determined using the bicinchoninic acid assay (Thermo Fisher Scientific) and ranged from 0.8 to 1.2 mM peptide. A stock solution of 500 mM MES, pH 5.6 was used to adjust all samples to a final concentration of 50 mM MES, pH 5.6. Aliquots of 10 mg/mL polyuridylic acid (polyU; Sigma Aldrich) were prepared in Milli-Q water and diluted as necessary. For CW-EPR measurements, a quartz capillary of 0.6 mm i.d. and 0.84 mm o.d. was filled with 7–8 μL of the sample and sealed with Critoseal (Fisherbrand, Fisher Scientific) at one end. A single capillary was placed in an X-band EPR tube of 2 mm i.d. and 2.4 mm o.d. for measurements, except for spin concentration below 50 μM, where two capillaries were used.
Each sample was freshly prepared and the time to collect […] CW-EPR data was 30–40 min.

[2] = system: polyU; assay: W-band echo intensity and echo decay of PA-12 with polyU; assay type: binding
Protocol: For pulse EPR measurements, 5–6 μL of peptide in D2O with 20% glycerol-d8 was introduced into a quartz capillary of 0.9 mm i.d. and 1.1 mm o.d. and sealed with Critoseal at one end. The samples with polyU (and thus, the potential for coacervates) were flash-frozen in liquid nitrogen after incubating at room temperature for 15–20 min. Samples without polyU were directly inserted into the spectrometer at 25 K.
Pulse EPR measurements were carried out at the W band (94.9 GHz) on a home-built spectrometer at 25 K.[22]−[24] Echo intensities were measured with a Hahn echo sequence (π/2νobs – τ – πνobs – τ – echo) using π/2 and π pulses of 20–25 ns and 40–50 ns, respectively, and τ = 500 ns. Echo decays were measured under the same conditions with an initial τ value of 500 ns. DEER measurements were recorded using the four-pulse DEER sequence (π/2νobs – τ1 – πνobs – (τ1 + t) – πνpump – (τ2-t) – πνobs – τ2 – echo)[25],[26] with a chirp pump pulse[23] using eight-step phase cycling and monitoring the echo intensity as a function of increasing t. […] The DEER data were analyzed using the DeerAnalysis 2018[27] program with Tikhonov regularization[28] and also verified with DEERNet.[29] […] The calculated distance distributions were obtained from mtsslSuite[30] using maleimide TEMPO (M-TEMPO) as the ligand, and 200 rotamer conformations were generated using clash treatment set to “loose”. […]

- droplet formation with polyU ([1]; 50 μM PA-12 and above, 1 mg/mL polyU): a significant number of droplets
- coacervate formation with polyU ([1]; 0.35 or 0.5 mg/mL polyU): only a few tiny droplets were observed
- coacervate formation with polyU ([1]; 1 or 2 mg/mL polyU): readily form coacervates
Sequence: RIRRASVEELTCVPGIGPRLARRILERLA [PA-12, Precursor-Arg peptide in which position 12 has been modified with a cysteine and attached to an M-TEMPO spin label]
- echo signal remaining ([2]; 150 μM PA-12, 0.5 mg/mL polyU (plateau), relative to no polyU): 8%
- fast-decaying echo component ([2]; 1 mg/mL polyU, 80% spin dilution, final PA 150 μM): the fast-decaying component became clearly visible
